Reference: US20250082781A1, “METHODS OF LOWERING BLOOD GLUCOSE AND TREATING TYPE 2 DIABETES BY ACTIVATION OF PDE4D3” (Salk Institute for Biological Studies, priority 2021, published 2025)

Key:
[1] = tested on: mouse SVF-derived adipocytes; assay: In vitro lipolysis assay (FFA release), mouse SVF-derived adipocytes; type: cell-based
Method: Isolation of adipose stromal fraction (SVF) was performed as published previously with slight modifications (Bapat et al., 2015). Inguinal adipose (iWAT) tissues were used for isolation of SVF due their ability to differentiate to mature adipocytes. Briefly, adipose tissues were dissected, washed in cold PBS and cut into small pieces in digestion buffer (100 mM HEPES, 120 mM NaCl, 50 mM KCl, 1 mM CaCl2), 1.5% fatty acids free BSA, 1 mg/ml collagenase I). Samples were dissociated in 37° C. water bath with shaking for 30-60 min with occasional monitoring to prevent over digestion. Tissue debris were filtered by 100 μm cell strainer and SVF was collected by centrifugation at 500 g for 5 minutes. Cell pellet was washed once by PBS and filtered with 40 μm cell strainer. Red blood cells were lysed with Red blood cell lysis buffer (BioLegend) according to manufacturer's instructions. The remaining cells were re-suspended and cultured in DMEM/F12 with 20% FBS (GemCell, 100-500) at 37° C., 5% CO2.
Differentiation of pre-adipocytes were based on previously published methods (Bunnell et al., 2008). Briefly, 3T3-L1 pre-adipocytes were grown to full confluence in DMEM, 10% FBS (GemCell, 100-500), 10 mM HEPES and antibiotic-antimycotic (full growth media). 2 days later, differentiation was induced by replacing the media with 1 μM dexamethasone, 1 μM rosiglitazone, 500 μM IBMX and 5 μg/ml insulin in full growth media 2 days later after reaching full confluence. Two days later media was replaced by differentiation induction media with 1 μM rosiglitazone and 5 μg/ml insulin for 4 days with media change after 2 days. Cells were kept in maintenance medium (full growth media with 5 μg/ml insulin) for 4 more days for full differentiation. […]
For in vitro lipolysis assay, cells were washed with PBS and media were changed to full growth media 1 day before experiment. […] FFAs were measured in the media using a commercial kit (Wako-NEFAHR2) and normalized to protein concentration. […] FFAs were measured and normalized by the explant weights.

[2] = tested on: hepatic gluconeogenic intermediates; assay: Hepatic metabolite levels (targeted metabolomics, kits); type: in vivo, mouse
Method: Polar metabolites were extracted and analyzed using a previously reported method (Yuan et al., 2012). Briefly, ob/ob mice were sacrificed by cervical dislocation. Liver pieces (50-100 mg) were snap frozen in liquid nitrogen. 1 ml LC-MS grade 80% methanol chilled at −80° C. was added per 100 mg tissue on dry ice. Samples were homogenized by TissueLyzer and lysates were incubated on dry ice for 30 minutes and centrifuged at 20000 g for 10 minutes. Clarified supernatants were transferred to new tubes. Pellets were extracted again and supernatants were combined. After drying the supernatant under nitrogen gas, extracts were dissolved in H2O (40 μL) and 10 μL were subjected to liquid chromatography mass spectrometry (LC-MS). Polar metabolites were measured by LC-MS using a TSQ Quantiva instrument fitted with a Luna NH2 HPLC column (5.0 μm; 4.6 mm×50 mm, Phenomenex). The following LC solvents were used: buffer A, 95:5 H2O/ACN, 20 mM ammonium hydroxide, 20 mM ammonium acetate; buffer B, 100% ACN. A typical LC run was 23 minutes long with a flow rate of 0.4 ml min-1 and consisted of the following steps: 85 to 30% buffer B over 3 minutes, 30 to 2% buffer B over 9 minutes, 2% buffer B for 3 minutes, 2 to 85% buffer B over 1 minute, and 85% buffer B for 7 minutes. MS analyses were performed using electrospray ionization (ESI) in negative or positive ion mode depending on the metabolites being analyzed. Negative mode and positive mode source parameters were the following: spray voltage 3.5 kV, ion transfer tube temperature of 325° C., and a vaporizer temperature of 275° C.
Liver samples were prepared from HFD-fed mice as described in Pcx activity assay. After determining Pcx activity from sample homogenates, the remaining supernatant was de-proteinated by perchloric acid (PCA)-KOH method using a commercial kit. De-proteinated samples were used to quantify hepatic metabolites using the commercial kits. Hepatic metabolites concentration was normalized to protein concentration and corrected for the loss of volume due to de-proteinization.

[3] = livers of ob/ob mice 2 h after FGF1 injection

Substance: FGF1: Recombinant fibroblast growth factor 1 protein, dissolved in PBS, injected subcutaneously
- anti-lipolytic activity of FGF1 with selective inhibitors of PDE4 ([1]; FGF1 100 ng/ml with roflumilast 2 μM): blocked by selective inhibitors of PDE4
- basal and isoproterenol-induced lipolysis ([1]; FGF1 100 ng/ml, 10 min before ISO 1 nM): acutely suppressed basal and isoproterenol-induced lipolysis
- isoproterenol-induced lipolysis in adipocytes derived from PDE4D KO SVF ([1]; FGF1 100 ng/ml, ISO 1 nM): insensitive to FGF1 treatment
- hepatic gluconeogenic substrates ([2]; HFD-fed adR1KO mice, 6 h after FGF1 0.5 mg/kg): insensitive to FGF1 treatment
- reductions in hepatic gluconeogenic substrates ([2]; HFD-fed adR1WT mice, 6 h after FGF1 0.5 mg/kg): largely recapitulated
- hepatic TCA cycle metabolites [2, 3]: not affected
- hepatic acetyl-CoA levels [2, 3]: decreased
- hepatic intermediates downstream of pyruvate (G6P, F6P, PG, PEP, OAA) [2, 3]: reduced
